Data reported in PubChem BioAssay AID248 (DTP/NCI, 2004).
Values joined by “and” are separate entries in the source; they are usually repeats but may differ in a detail not shown here. Identical values can stand only once. Inconclusive results and toxic doses are left out. Cut-off read from the data, not from the text of the source: active = T/C of 150% or more; inactive = T/C below 125%.

Tested on: L1210 leukemia ip in BDF1 mice, survival T/C
Assay: NCI In Vivo Anticancer Drug Screen. Data for tumor model L1210 Leukemia (intraperitoneal) in B6D2F1 (BDF1) mice
Conditions: endpoint: mean survival time, higher = longer survival
Procedure, shortened: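 Antitumor effect is assessed in tumor-bearing animals. Survival in the compound arm is compared with a vehicle-dosed control arm and expressed as their quotient.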

[1] = dose: 100.0 mg/kg/injection, schedule: Q01DX009 (ip), vehicle: saline with Tween-80
[2] = dose: 200.0 mg/kg/injection, schedule: Q01DX009 (ip), vehicle: saline with Tween-80
[3] = dose: 400.0 mg/kg/injection, schedule: Q01DX009 (ip), vehicle: saline with Tween-80

Measured: T/C

CC(C)(C)CC(C)(C)NS(=O)(=O)CCCBr
inactive: dose: 25.0 mg/kg/injection, schedule: Q04DX003 (ip), vehicle: saline with Tween-80 95 % of control | dose: 50.0 mg/kg/injection, schedule: Q04DX003 (ip), vehicle: saline with Tween-80 111 % of control

ClCc1csc(-c2ccccc2)n1
inactive: [1] 115 % of control | [2] 94 % of control | [3] 92 % of control

N#CC(O)C(Br)(Br)Br (stereo unspecified)
inactive: dose: 5.0 mg/kg/injection, schedule: Q01DX001 (ip), vehicle: saline 97 % of control | dose: 10.0 mg/kg/injection, schedule: Q01DX001 (ip), vehicle: saline 92 % of control | dose: 20.0 mg/kg/injection, schedule: Q01DX001 (ip), vehicle: saline 101 % of control

COC(=O)/C=C(/CC(=O)OC)Nc1ccc(OC)cc1
inactive: dose: 100.0 mg/kg/injection, schedule: Q01DX001 (ip), vehicle: other 101 % of control | dose: 200.0 mg/kg/injection, schedule: Q01DX001 (ip), vehicle: other 101 % of control | dose: 400.0 mg/kg/injection, schedule: Q01DX001 (ip), vehicle: other 108 % of control

CCCCOC(=O)CC1CCCN1C (stereo unspecified)
inactive: dose: 100.0 mg/kg/injection, schedule: Q04DX003 (ip), vehicle: saline 110 % of control | dose: 200.0 mg/kg/injection, schedule: Q04DX003 (ip), vehicle: saline 101 % of control

O=C(Oc1ccccc1)C(Cl)(Cl)Cl
inactive: dose: 6.25 mg/kg/injection, schedule: Q01DX009 (ip), vehicle: saline 95 % of control | dose: 12.5 mg/kg/injection, schedule: Q01DX009 (ip), vehicle: saline 92 % of control | dose: 25.0 mg/kg/injection, schedule: Q01DX009 (ip), vehicle: saline 89 % of control | dose: 100.0 mg/kg/injection, schedule: Q01DX001 (ip), vehicle: acetone 98 % of control | dose: 100.0 mg/kg/injection, schedule: Q04DX003 (ip), vehicle: acetone 95 % of control | dose: 200.0 mg/kg/injection, schedule: Q01DX001 (ip), vehicle: acetone 90 % of control | dose: 200.0 mg/kg/injection, schedule: Q04DX003 (ip), vehicle: acetone 98 % of control | dose: 400.0 mg/kg/injection, schedule: Q01DX001 (ip), vehicle: acetone 100 % of control

COC(=O)C(Cc1ccccc1)NC(=O)C(COC1OC(COC(C)=O)C(OC(C)=O)C(OC(C)=O)C1NC(C)=O)NC(=O)OCc1ccccc1 (stereo unspecified)
inactive: dose: 50.0 mg/kg/injection, schedule: Q04DX002 (ip), vehicle: Klucel (hydroxypropylcellulose) (HPC) 101 % of control | dose: 100.0 mg/kg/injection, schedule: Q04DX002 (ip), vehicle: Klucel (hydroxypropylcellulose) (HPC) 104 % of control | dose: 200.0 mg/kg/injection, schedule: Q04DX002 (ip), vehicle: Klucel (hydroxypropylcellulose) (HPC) 101 % of control

O=C1OC(OC(=O)c2ccccc2)C(NC2CCCCC2)=C1Br (stereo unspecified)
inactive: [1] 98 % of control | [2] 96 % of control | [3] 98 % of control

NCCc1cn(C2OC(CO)C(O)C(O)C2O)c2ccccc12 (stereo unspecified)
inactive: dose: 25.0 mg/kg/injection, schedule: Q01DX005 (ip), vehicle: saline 96 % of control and 106 % of control | dose: 50.0 mg/kg/injection, schedule: Q01DX005 (ip), vehicle: saline 96 % of control | dose: 100.0 mg/kg/injection, schedule: Q01DX005 (ip), vehicle: saline 109 % of control and 87 % of control

O=C1C=CC(=O)c2nc(-c3ccccn3)c(-c3ccccn3)nc21
inactive: dose: 1.56 mg/kg/injection, schedule: Q04DX003 (ip), vehicle: Klucel (hydroxypropylcellulose) (HPC) 92 % of control | dose: 3.12 mg/kg/injection, schedule: Q04DX003 (ip), vehicle: Klucel (hydroxypropylcellulose) (HPC) 93 % of control | dose: 6.25 mg/kg/injection, schedule: Q04DX003 (ip), vehicle: Klucel (hydroxypropylcellulose) (HPC) 90 % of control | dose: 18.0 mg/kg/injection, schedule: Q01DX009 (ip), vehicle: Klucel (hydroxypropylcellulose) (HPC) 101 % of control | dose: 28.0 mg/kg/injection, schedule: Q01DX009 (ip), vehicle: Klucel (hydroxypropylcellulose) (HPC) 100 % of control | dose: 40.0 mg/kg/injection, schedule: Q01DX009 (ip), vehicle: Klucel (hydroxypropylcellulose) (HPC) 93 % of control

CC1(C)N=C(N)N=C(N)N1c1ccc(OCC(=O)Nc2ccc(S(=O)(=O)F)cc2)c(Cl)c1
inactive: dose: 50.0 mg/kg/injection, schedule: Q01DX009 (ip), vehicle: carboxymethylcellulose (CMC) 106 % of control and 117 % of control | dose: 50.0 mg/kg/injection, schedule: Q01DX009 (ip), vehicle: saline 109 % of control | dose: 100.0 mg/kg/injection, schedule: Q01DX009 (ip), vehicle: carboxymethylcellulose (CMC) 114 % of control | dose: 400.0 mg/kg/injection, schedule: Q01DX009 (ip), vehicle: carboxymethylcellulose (CMC) 94 % of control | dose: 400.0 mg/kg/injection, schedule: Q01DX009 (ip), vehicle: saline 109 % of control
